Reference: US6921821B2, “Antagonists of melanin concentrating hormone receptor” (Abbott Laboratories, priority 2002, dated 2005)
Counter-ions that a name gives are not always drawn.

Target: T1, murine MCHR (Mus musculus, UniProt Q8JZL2)
T1 construct: expressed in transfected cells; host or cells: HEK293
Test: Assay for release of intracellular calcium (FLIPR, Fluo-4), inhibition of MCH-induced Ca++ flux
Format: cell-based
Conditions: test compound at a dose of 10 μM, HEK293 cells expressing the murine MCHR, read-out: inhibition of MCH (MCH induced Ca++ flux / fluorescence)
Method in brief: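 HEK293 cells expressing murine MCHR were loaded with Fluo-4AM (2.5 μM) and given compound (40 μM stock in 4% DMSO), with 3 min monitoring for agonism. They were then challenged with mouse MCH (12 nM as added) and FLIPR fluorescence followed 3 min more. % inhibition of MCH-induced Ca++ flux was calculated against baseline and no-compound signals.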

T1 sequence (Q8JZL2 whole entry): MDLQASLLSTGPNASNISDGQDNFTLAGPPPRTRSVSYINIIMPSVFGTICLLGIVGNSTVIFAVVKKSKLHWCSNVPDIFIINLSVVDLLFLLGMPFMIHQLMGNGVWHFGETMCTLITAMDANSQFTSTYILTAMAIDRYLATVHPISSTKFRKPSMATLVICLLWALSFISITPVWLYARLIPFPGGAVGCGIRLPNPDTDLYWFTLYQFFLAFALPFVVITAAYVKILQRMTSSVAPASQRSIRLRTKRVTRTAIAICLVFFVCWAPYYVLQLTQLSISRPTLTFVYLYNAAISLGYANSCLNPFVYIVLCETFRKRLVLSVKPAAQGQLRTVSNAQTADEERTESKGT

Structure (SMILES)	inhibition at 10 µM [%]
COc1ccc2oc(=O)cc(NC3CCN(Cc4ccc(OCCCN5CCCCC5)c(F)c4)CC3)c2c1 [II-47, 4-{1-[3-Fluoro-4-(3-piperidin-1-yl-propoxy)-benzyl]-piperidin-4-ylamino}-6-methoxy-chromen-2-one; Double TFA Salt]	≥ 50
N#Cc1ccc2oc(=O)cc(NC3CCN(Cc4ccc5c(c4)OCO5)CC3)c2c1 [II-75, 4-(1-Benzo[1,3]dioxol-5-ylmethyl-piperidin-4-ylamino)-2-oxo-2H-chromene-6-carbonitrile]	≥ 50
COc1ccc2oc(=O)cc(NC3CCN(Cc4cccc5sccc45)CC3)c2c1 [II-101, 4-{[1-(1-benzothien-4-ylmethyl)piperidin-4-yl]amino}-6-methoxy-2H-chromen-2-one]	≥ 50
COc1ccc2oc(=O)cc(NC3CCN(Cc4cccc(C)c4)CC3)c2c1 [II-92, 6-Methoxy-4-[1-(3-methyl-benzyl)-piperidin-4-ylamino]-chromen-2-one trifluoroacetate]	≥ 50
COc1ccc2oc(=O)cc(NC3CCN(Cc4ccc5ccc(C)cc5c4)CC3)c2c1 [II-27, 6-Methoxy-4-[1-(7-methyl-naphthalen-2-ylmethyl)-piperidin-4-ylamino]-chromen-2-one trifluoroacetate]	≥ 50
O=c1cc(NC2CCN(Cc3ccc4c(c3)OCO4)CC2)c2cc(Cl)cc(Br)c2o1 [II-41, 4-(1-Benzo[1,3]dioxol-5-ylmethyl-piperidin-4-ylamino)-8-bromo-6-chloro-chromen-2-one]	≥ 50
CCn1c(=O)cc(NC2CCN(Cc3ccc4ccccc4c3)CC2)c2cc(Cl)ccc21 [Compound V-6, 6-Chloro-1-ethyl-4-(1-naphthalen-2-ylmethyl-piperidin-4-ylamino)-1H-quinolin-2-one]	≥ 50
COc1ccc2oc(=O)cc(N[C@@H]3CCN(Cc4ccc5c(c4)OCO5)C[C@H]3C)c2c1 (stereo in doubt) [II-72, 4-(1-Benzo[1,3]dioxol-5-ylmethyl-3-methyl-piperidin-4-ylamino)-6-methoxy-chromen-2-one]	≥ 50
O=C1CCCN1c1cc(Cl)cc2c(NC3CCN(Cc4ccc5c(c4)OCO5)CC3)cc(=O)oc12 [II-81]	≥ 50
O=C(NCCN1CCCCC1)c1ccc(CN2CCC(Nc3cc(=O)oc4ccc(Cl)cc34)CC2)cc1 [II-67, 4-[4-(6-Chloro-2-oxo-2H-chromen-4-ylamino)-piperidin-1-ylmethyl]-N-(2-piperidin-1-yl-ethyl)-benzamide; Double TFA Salt]	≥ 50
COc1ccc2c(c1)c(NC1CCN(Cc3ccc4ccccc4c3)CC1)cc(=O)n2C [Compound V-9, 6-Methoxy-1-methyl-4-(1-naphthalen-2-ylmethyl-piperidin-4-ylamino)-1H-quinolin-2-one]	≥ 50
N#Cc1c(NC2CCN(Cc3ccc4c(c3)OCO4)CC2)c2cc(Cl)ccc2[nH]c1=O [Compound V-27, 4-(1-Benzo[1,3]dioxol-5-ylmethyl-piperidin-4-ylamino)-6-chloro-2-oxo-1,2-dihydro-quinoline-3-carbonitrile]	≥ 50
CCc1ccc2c(c1)c(NC1CCN(Cc3ccc4ccccc4c3)CC1)cc(=O)n2C [Compound V-20, 6-Ethyl-1-methyl-4-(1-naphthalen-2-ylmethyl-piperidin-4-ylamino)-1H-quinolin-2-one]	≥ 50
CC(C)c1ccc2c(c1)c(NC1CCN(Cc3ccc4c(c3)OCO4)CC1)cc(=O)n2C [Compound V-43, 4-(1-Benzo[1,3]dioxol-5-ylmethyl-piperidin-4-ylamino)-6-isopropyl-1-methyl-1H-quinolin-2-one]	≥ 50
COc1ccc([C@@H](C)N2CCC(Nc3cc(=O)oc4ccc(Cl)cc34)CC2)cc1F (stereo in doubt) [II-45, 6-Chloro-4-{1-[1-(3-fluoro-4-methoxy-phenyl)-ethyl]-piperidin-4-ylamino}-chromen-2-one]	≥ 50
O=c1cc(NC2CCN(C/C=C/c3ccccc3)CC2)c2cc(Br)ccc2o1 [III-5, 6-Bromo-4-[1-(3-phenyl-allyl)-piperidine-4-ylamino]-chromen-2-one]	≥ 50
COc1ccc(CN2CCC(Nc3cc(=O)oc4ccc(OC)cc34)CC2)cc1 [II-39, 6-Methoxy-4-[1-(4-methoxy-benzyl)-piperidin-4-ylamino]-chromen-2-one trifluoroacetate]	≥ 50
COc1ccc2oc(=O)cc(NC3CCN(Cc4ccccc4)CC3)c2c1 [II-102, 4-(1-Benzyl-piperidin-4-ylamino)-6-methoxy-chromen-2-one trifluoroacetate]	≥ 50
COc1ccc2oc(=O)cc(NC3CCN(Cc4ccc(Br)cc4)CC3)c2c1 [II-65, 4-[1-(4-Bromo-benzyl)-piperidin-4-ylamino]-6-methoxy-chromen-2-one trifluoroacetate]	≥ 50

Structure (SMILES)	inhibition at 10 µM [%]
C=Cc1ccc2oc(=O)cc(NC3CCN(Cc4ccc5c(c4)OCO5)CC3)c2c1 [II-35, 4-(1-Benzo[1,3]dioxol-5-ylmethyl-piperidin-4-ylamino)-6-vinyl-chromen-2-one]	≥ 50
O=c1cc(NC2CCN(Cc3ccc4occc4c3)CC2)c2cc(Cl)ccc2n1Cc1ccccn1 [Compound V-26, 4-(1-Benzofuran-5-ylimethyl-piperidin-4-ylamino)-6-chloro-1-pyridin-2-ylmethyl-1H-quinolin-2-one]	≥ 50
O=c1cc(NC2CC3CCC(C2)N3Cc2ccc3c(c2)OCO3)c2cc(Cl)ccc2n1CC(F)(F)F (centres unmarked) [Compound V-57]	≥ 50
CC(c1ccc2ncccc2c1)N1CCC(Nc2cc(=O)oc3ccc(Cl)cc23)CC1 (racemic) [II-106, 6-Chloro-4-[1-(1-quinolin-6-yl-ethyl)-piperidin-4-ylamino]-chromen-2-one]	≥ 50
O=c1cc(NC2CCN(Cc3ccc4ccccc4c3)CC2)c2cc(Cl)ccc2n1Cc1cccnc1 [Compound V-1, 6-Chloro-4-(1-naphthalen-2-ylmethyl-piperidin-4-ylamino)-1-pyridin-3-ylmethyl-1H-quinolin-2-one]	≥ 50
CN(C)C(=O)c1c(NC2CCN(Cc3ccc4occc4c3)CC2)c2cc(Cl)ccc2n(C)c1=O [Compound V-40, 4-(1-Benzofuran-5-ylmethyl-piperidin-4-ylamino)-6-chloro-1-methyl-2-oxo-1,2-dihydro-quinoline-3-carboxylic acid dimethylamide]	≥ 50
Cc1ccc2oc(=O)cc(NC3CCN(Cc4ccc5c(c4)OCO5)CC3)c2c1 [II-3, 4-(1-Benzo[1,3]dioxol-5-ylmethyl-piperidin-4-ylamino)-6-methyl-chromen-2-one]	≥ 50
COc1ccc2oc(=O)cc(NC3CCN(Cc4ccc(C)c(C)c4)CC3)c2c1 [II-29, 4-[1-(3,4-Dimethyl-benzyl)-piperidin-4-ylamino]-6-methoxy-chromen-2-one trifluoroacetate]	≥ 50
Cc1ccc2c(c1)c(NC1CCN(C/C=C/c3ccccc3)CC1)cc(=O)n2C [Compound V-38, 1,6-Dimethyl-4-[1-(3-phenyl-allyl)-piperidin-4-ylamino]-1H-quinolin-2-one]	≥ 50
CCc1ccc2c(c1)c(NC1CCN(Cc3ccc4occc4c3)CC1)cc(=O)n2CC [Compound V-28, 4-(1-Benzofuran-5-ylmethyl-piperidin-4-ylamino)-1,6-diethyl-1H-quinolin-2-one]	≥ 50
O=c1cc(NC2CCN(Cc3ccc4c(c3)CCO4)CC2)c2cc(Cl)ccc2o1 [II-78, 6-Chloro-4-[1-(2,3-dihydro-benzofuran-5-ylmethyl)-piperidin-4-ylamino]-chromen-2-one]	≥ 50
COc1cccc(CN2CCC(Nc3cc(=O)oc4ccc(OC)cc34)CC2)c1 [II-76, 6-Methoxy-4-[1-(3-methoxy-benzyl)-piperidin-4-ylamino]-chromen-2-one trifluoroacetate]	≥ 50
CC(=O)c1ccc(C(C)N2CCC(Nc3cc(=O)oc4ccc(Cl)cc34)CC2)cc1 (racemic) [II-116, 4-{1-[1-(4-acetylphenyl)-ethyl]-piperidin-4-ylamino}-6-chlorochromen-2-one]	≥ 50
CCn1c(=O)cc(NC2CCN(C/C=C/c3ccccc3)CC2)c2cc(Cl)ccc21 [Compound V-63, 6-Chloro-1-ethyl-4-[1-(3-phenyl-allyl)-piperidin-4-ylamino]-1H-quinolin-2-one]	≥ 50
C=Cc1ccc2oc(=O)cc(NC3CCN(Cc4ccc(C)c(C)c4)CC3)c2c1 [II-46, 4-{1-(3,4-Dimethyl-benzyl)-piperidin-4-ylamino}-6-vinyl-chromen-2-one]	≥ 50
O=c1cc(NC2CCN(Cc3csc4ccccc34)CC2)c2cc(Cl)ccc2o1 [II-6, 4-(1-Benzo[b]thiophen-3-ylmethyl-piperidin-4-ylamino)-6-chloro-chromen-2-one]	≥ 50
Cn1c(=O)c(C2=NC(C)(C)CO2)c(NC2CCN(Cc3ccc4c(c3)OCO4)CC2)c2cc(Cl)ccc21 [Compound V-49, 4-(1-Benzo[1,3]dioxol-5-ylmethyl-piperidin-4-ylamino)-6-chloro-3-(4,4-dimethyl-4,5-dihydro-oxazol-2-yl)-1-methyl-1H-quinolin-2-one]	≥ 50
Cn1c(=O)cc(NC2CCN(Cc3ccc4ccccc4c3)CC2)c2cc(O)ccc21 [Compound V-46, 6-Hydroxy-1-methyl-4-(1-naphthalen-2-ylmethyl-piperidin-4-ylamino)-1H-quinolin-2-one]	≥ 50
CON(C)C(=O)c1c(NC2CCN(Cc3ccc4c(c3)OCO4)CC2)c2cc(Cl)ccc2n(C)c1=O [Compound V-52, 4-(1-Benzo[1,3]dioxol-5-ylmethyl-piperidin-4-ylamino)-6-chloro-1-methyl-2-oxo-1,2-dihydro-quinoline-3-carboxylic acid methoxy-methyl-amide]	≥ 50
